Where a name gives a salt, the structure may show the parent alone.
Test system: Von Bezold-Jarisch Reflex induced by 5-HT
Assay: Von Bezold-Jarisch Reflex induced by 5-HT injected intravenously
Type: in vivo
Conditions: rat
Text: The activity of these compounds agianst 5-HT can be assessed in vivo by measurement of the effect of the compound on the Von Bezold-Jarisch Reflex induced by 5-HT injected intravenously into the rat (see Paintal A.S., Physiol. Rev. 53, 159-227, 1973; J.R. Fozard, Naunyn-Schmiedeberg's Arch. Pharmacol., 326, 1984, 36-44). The transient cardiac slowing arises from an increased afferent vagus activity arising from stimulation by 5-HT of sensory afferent fibres in and around the heart.

[1] = doses of 0.01-0.1 mg/kg given intravenously
[2] = doses of 0.25-1 mg/kg given orally

Compound	suppression of the Von Bezold-Jarisch Reflex response [1]	suppression of the Von Bezold-Jarisch Reflex response [2]
Cc1cc(C)cc(C(=O)OC2CC3CC4CC(C2)N3CC4=O)c1 (stereo not drawn) [endo-8-(3,5-dimethylbenzoyloxy)hexahydro-2,6-methano-2H-quinolizin-3(4H)-one]	suppressed the response dose-dependently	suppressed the response dose-dependently
O=C(OC1CC2CC3CC(C1)N2CC3=O)c1c[nH]c2ccccc12 (stereo not drawn) [endo-hexahydro-8-(3-indolylcarbonyloxy)-2,6-methano-2H-quinolizin-3(4H)one hydrochloride]	suppressed the response dose-dependently	suppressed the response dose-dependently
